Experimental data taken from patent US7053041B1, “Methods and compositions useful for inhibition of αvβ5mediated angiogenesis” (The Scripps Research Institute, priority 1996, dated 2006).
[ ]: non-standard residue; d: D form.

Tests used:
[1] = test system: bFGF-induced angiogenesis; assay: chick CAM assay, bFGF-induced angiogenesis, intravenous inhibitors; format: in vivo; details: for inhibition of bFGF-induced CAM angiogenesis: bFGF 150 ng/ml, 75 μg antibody or peptide intravenously, 72 hours
Experimental: Ten day old chick embryos were obtained from McIntyre Poultry (Lakeside, Calif.) and incubated at 37C with 60% humidity. A small hole was made through the shell at the end of the egg directly over the air sac with the use of a small crafts drill (Dremel, Division of Emerson Electric Co., Racine, Wis.). A second hole was drilled on the broad side of the egg in a region devoid of embryonic blood vessels determined previously by candling the egg. […] A 1.0 centimeter (cm)×1.0 cm square window was cut through the shell over the dropped CAM with the use of a small model grinding wheel (Dremel). The small window allowed direct access to the underlying CAM.
Angiogenesis was induced by placing a 5 millimeter (mm)×5 mm Whatman filter disk (Whatman Filter paper No. 1) saturated with Hanks Balanced Salt Solution (HBSS, GIBCO, Grand Island, N.Y.) or HBSS containing preselected cytokines at a preselected concentration, i.e. one to test the effect on angiogenesis, on the CAM of a 10 day chick embryo in a region devoid of blood vessels and the windows were later sealed with tape. Angiogenesis was monitored by photomicroscopy after 72 hours. CAMs were snap frozen then 6 μm cryostat sections were fixed with acetone and stained by immunofluorescence as described in Example 2B and 2C with 10 μg/ml of selected anti-integrin antibodies, including those directed against αvβ5 as described in Example 1.
Angiogenesis was first induced on 10 day old chick embryos by application of growth factor-saturated filter disks. Specifically, in the first assays, angiogenesis was induced by exposure to either bFGF or VEGF, each at a concentration of 150 ng/ml.
For application of growth factors, during the candling procedures, prominent blood vessels were selected and marks were made on the egg shell to indicate their positions. The holes were drilled in the shell, the CAMs were dropped and growth factor-saturated filter papers were then separately placed on the CAMs as described above. The windows were sealed with sterile tape and the embryos were replaced in the incubator.
Twenty four hours later, a second small window was carefully cut on the lateral side of the egg shell directly over prominent blood vessels selected previously. The outer egg shell was carefully removed leaving the embryonic membranes intact. The shell membrane was made transparent with a small drop of mineral oil (Perkin-Elmer Corp, Norwalk, Conn.) which allowed the blood vessels to be visualized easily. Then, phosphate buffered saline (PBS), 75 μg of purified sterile anti-integrin antibodies or 75 μg of synthetic peptides (cyclic peptide RGDfV, SEQ ID NO 4 and control cyclic peptide RADfV, SEQ ID NO 5) in PBS were injected into blood vessels apparent on the growth factor-induced CAMs. The windows were sealed with tape and the embryos were allowed to incubate until 72 hours.
The filter discs and representative surrounding CAM tissues were photographed in a stereomicroscope (FIGS. 3A–3F and FIGS. 5A–5F) and the mean angiogenic index +/− the standard error was determined for 12 CAMs per condition (FIGS. 4A–4B and FIGS. 6A–6B). Angiogenesis was scored for each embryo in a double blind manner by analyzing the number and extent of branching of blood vessels within the area of each disc. The scores ranged from 1 (low) to 4 (high) and the angiogenesis index was determined by subtracting a background of 1 from all data. […]

integrin αIIbβ3 = integrin αIIbβ3 (Homo sapiens, UniProt P05106+P08514); details: cited from earlier work
integrin α5β1 = integrin α5β1 (Homo sapiens, UniProt P05556+P08648); details: cited from earlier work
retinal vasculogenesis = assay: newborn mouse model of retinal angiogenesis; format: in vivo
Experimental: For the model, newborn mice were injected subcutaneously twice daily for four days starting from day 0 with the cyclic peptide RGDfV (SEQ ID NO 4) (also referred to as peptide 203) or the control peptide RADfV (SEQ ID NO 5). On postnatal day five, globes were removed and fixed in 4.0% paraformaldehyde (PFA) at room temperature.
To quantitate mouse retinal angiogenesis, the distance from the optic nerve head to the most distal point of a single vessel selected in each of six equal sectors around a twelve hour clock was measured. The mean distance was calculated and averaged with similar data obtained from an entire litter. To measure the total volume of retinal blood vessels, the entire specimen was scanned in 2.0 μm optical sections and stored digitally. The “seed” function in Bio-Rad's Lasersharp software was then used to threshold and count cubic pixels in each section. A macro was written to sum the volume of all sections and determine the value for all vascular structures.

M21-L tumors = assay: tumor regression on chick CAM, M21-L tumors, intravenous peptide; format: in vivo; details: 100 ug peptide intravenously 18 hours postimplantation; 48 hours more
Experimental: (§1) In one particular set of assays, additional tumor regression assays were performed with the αvβ5-reactive peptide 85189 (SEQ ID NO 9) against 69601 (SEQ ID NO 5) as a control. The assays were performed as described above with the exception that 100 ug of peptide was intravenously injected into the CAM at 18 hourst postimplantation of the various tumors which in this case included UCLAP-3, M21-L and FgM tumor types. After 48 hours more, the tumors were then resected and wet weights were obtained.

UCLAP-3 tumors = assay: tumor regression on chick CAM, UCLAP-3 tumors, intravenous peptide; format: in vivo; details: 100 ug peptide intravenously 18 hours postimplantation; 48 hours more
Experimental: as §1

FgM tumors = assay: tumor regression on chick CAM, FgM tumors, intravenous peptide; format: in vivo; details: 100 ug peptide intravenously 18 hours postimplantation; 48 hours more
Experimental: as §1

[2] = test system: angiogenesis induced by TGF-α; assay: chick CAM assay, TGF-α-induced angiogenesis; format: in vivo; details: TGF-α 1.0 μg/ml; antibodies 75 μg per embryo, calphostin C 100 nM
Experimental: The above growth factors (cytokines), including bFGF and VEGF, were separately applied at a concentration of 1.0 μg/ml to the 10 day old CAM model as previously described. PMA was used at a concentration of 20 ng/ml.
After 24 hours after growth factor treatment, the antibodies, LM609 and P1F6, or the protein kinase C (PKC) inhibitor, calphostin C, were separately provided to the CAM model, either by a single intravascular dose as described above or by topical administration as described below in the next example. For intravascular injections over the next 3 day consecutive period, the antibodies were used at a concentration of 75 μg per embryo and the calphostin C was at a dosage of 100 nM.
On day 13, filter discs and associated CAM tissue were dissected and analyzed for angiogenesis with a stereo microscope. Angiogenesis was scored in a double blind manner by analyzing the number and extent of branching of the blood vessels within the area of the discs. The scores ranged from low (1) to high (4). The angiogenesis index was determined by subtracting a background score of 1 from all data. Experiments were repeated 2–4 times with 5–6 embryos per condition.

Sequence of integrin α5β1 (P08648 42-894 limits assumed): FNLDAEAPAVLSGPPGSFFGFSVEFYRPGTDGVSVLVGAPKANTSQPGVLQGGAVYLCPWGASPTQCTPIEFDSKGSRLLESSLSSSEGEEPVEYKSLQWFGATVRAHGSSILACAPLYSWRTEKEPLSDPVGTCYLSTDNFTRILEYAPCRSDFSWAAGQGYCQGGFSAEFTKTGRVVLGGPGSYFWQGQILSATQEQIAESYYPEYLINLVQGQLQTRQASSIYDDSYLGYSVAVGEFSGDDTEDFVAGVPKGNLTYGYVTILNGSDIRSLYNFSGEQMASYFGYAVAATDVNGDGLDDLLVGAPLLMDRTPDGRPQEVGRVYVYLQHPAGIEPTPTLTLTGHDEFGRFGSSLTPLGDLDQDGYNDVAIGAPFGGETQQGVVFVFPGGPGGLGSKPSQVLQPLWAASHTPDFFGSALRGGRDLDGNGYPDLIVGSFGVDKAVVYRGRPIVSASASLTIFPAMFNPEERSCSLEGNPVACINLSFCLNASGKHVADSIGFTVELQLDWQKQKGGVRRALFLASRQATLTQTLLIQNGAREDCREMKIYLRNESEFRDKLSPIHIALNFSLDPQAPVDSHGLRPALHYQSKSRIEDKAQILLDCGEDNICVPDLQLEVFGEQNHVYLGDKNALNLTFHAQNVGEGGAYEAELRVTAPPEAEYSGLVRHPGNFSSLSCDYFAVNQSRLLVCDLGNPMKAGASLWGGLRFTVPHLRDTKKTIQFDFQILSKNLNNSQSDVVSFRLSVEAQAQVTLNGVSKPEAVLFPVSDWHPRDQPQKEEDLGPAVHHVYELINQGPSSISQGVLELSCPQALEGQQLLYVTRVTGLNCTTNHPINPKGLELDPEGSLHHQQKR
Sequence of integrin α5β1 (P08648 895-1049 partner limits assumed): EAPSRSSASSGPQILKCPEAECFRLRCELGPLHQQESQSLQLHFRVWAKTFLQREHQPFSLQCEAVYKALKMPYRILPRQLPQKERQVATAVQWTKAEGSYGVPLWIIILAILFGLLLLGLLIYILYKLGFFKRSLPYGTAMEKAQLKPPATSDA
Sequence of integrin α5β1 (P05556 21-798): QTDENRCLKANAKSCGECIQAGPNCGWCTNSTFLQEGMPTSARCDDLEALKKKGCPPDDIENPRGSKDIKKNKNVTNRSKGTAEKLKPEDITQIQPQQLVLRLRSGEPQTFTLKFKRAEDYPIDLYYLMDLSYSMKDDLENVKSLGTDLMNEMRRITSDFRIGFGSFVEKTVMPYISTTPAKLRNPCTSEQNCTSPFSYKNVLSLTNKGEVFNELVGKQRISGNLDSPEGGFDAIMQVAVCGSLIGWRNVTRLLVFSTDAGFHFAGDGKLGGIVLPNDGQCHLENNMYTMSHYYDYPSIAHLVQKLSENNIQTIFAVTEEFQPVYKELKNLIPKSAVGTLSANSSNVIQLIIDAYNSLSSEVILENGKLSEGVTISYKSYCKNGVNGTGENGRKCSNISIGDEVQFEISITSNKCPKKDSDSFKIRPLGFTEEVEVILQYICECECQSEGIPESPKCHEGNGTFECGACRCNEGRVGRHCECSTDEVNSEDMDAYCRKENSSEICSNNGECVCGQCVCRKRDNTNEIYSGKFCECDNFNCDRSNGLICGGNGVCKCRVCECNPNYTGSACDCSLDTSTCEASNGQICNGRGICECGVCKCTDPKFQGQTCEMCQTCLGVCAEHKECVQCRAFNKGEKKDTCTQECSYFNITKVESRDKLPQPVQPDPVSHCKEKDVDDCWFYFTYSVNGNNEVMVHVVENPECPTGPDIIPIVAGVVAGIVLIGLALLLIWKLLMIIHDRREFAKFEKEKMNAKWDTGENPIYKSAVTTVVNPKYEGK

Molecule	inhibition of bFGF-induced CAM angiogenesis [1]	inhibition of binding of fibrinogen to integrin αIIbβ3 (integrin αIIbβ3)	inhibition of binding of fibrinogen to integrin α5β1 (integrin α5β1)	mean volume of retinal vessels (retinal vasculogenesis; postnatal day five)	difference in vessel growth between untreated five-day old mice and same aged treated mice (retinal vasculogenesis; two dimensions)	effect on tumor wet weight, M21-L (M21-L tumors)	effect on tumor wet weight, UCLAP-3 (UCLAP-3 tumors)	effect on tumor wet weight, FgM (FgM tumors)	effect on CAM angiogenesis in response to bFGF (angiogenesis index) ([1]; bFGF 1.0 μg/ml, antibodies 75 μg per embryo, calphostin C 100 nM)	effect on CAM angiogenesis induced by TGF-α (angiogenesis index) [2]
cyclo(Arg-Ala-Asp-D-Phe-Val) (cyclo(RAD[dF]V); SMILES CC(C)[C@@H]1NC(=O)[C@@H](Cc2ccccc2)NC(=O)[C@H](CC(=O)O)NC(=O)[C@H](C)NC(=O)[C@H](CCCNC(=N)N)NC1=O) [peptide 69601, reference compound]	did not effect angiogenesis	not inhibit binding	not inhibit binding	15.7×10^6 μm^3	no statistical difference	lack of effect	lack of effect	lack of effect		
cyclo(Arg-Gly-Asp-D-Phe-NMeVal) [peptide 85189]						reduction in tumor weight	reduction in tumor weight	reduction in tumor weight		
LM609: mouse monoclonal antibody, anti-αvβ3 (antibody, V domains shown) VH: EVQLEESGGGLVKPGGSLKLSCAASGFAFSSYDMSWVRQIPEKRLEWVAKVSSGGGSTYYLDTVQGRFTISRDNAKNTLYLQMSSLNSEDTAMYYCARHNYGSFAYWGQGTLVTVSA VL: ELVMTQTPATLSVTPGDSVSLSCRASQSISNHLHWYQQKSHESPRLLIKYASQSISGIPSRFSGSGSGTDFTLSINSVETEDFGMYFCQQSNSWPHTFGGGTKLEIKRA	inhibited bFGF-induced angiogenesis								blocked angiogenesis	failed to do so
